From PMC10829382, “Purification and characterization of L-arginine deiminase from Penicillium chrysogenum” (BMC Microbiology, 2024)
Blank lines part the entries; values can stand above or below the compound they belong to.

Key:
[1] = target: T1, L-arginine deiminase (ADI) from Penicillium chrysogenum; assay: ammonia release, Nessler's reagent, […] nm; residual activity at […]; assay type: biochemical
T1 construct: single 49 kDa band on SDS-PAGE

[2] = tested on: T1, L-arginine deiminase (ADI) from Penicillium chrysogenum; assay: ammonia release, Nessler's reagent, […] nm; Eadie-Hofstee plot; assay type: biochemical; conditions: 40 °C, 30 min; phosphate buffer pH 7.5 in the standard assay
[3] = chelator in the reaction mixture, L-arginine as substrate, 40 °C

Compound: O=C(O)CN(CCN(CC(=O)O)CC(=O)O)CC(=O)O [EDTA]
IC50 [1, 3]: 5.19 mM

Compound: N=C(N)NCCC[C@H](N)C(=O)O [L-arginine]
Km [2]: 750 µM

Compound: c1cnc2c(c1)ccc1cccnc12 [o-phenanthroline]
IC50 [1, 3]: 4.79 mM

Compound: c1ccc(-c2ccccn2)nc1 [α,α-dipyridyl]
IC50 [1, 3]: 7.46 mM

Further lines, results first:

IC50 ([1]; covalent, tyrosyl modifier, 150 mM phosphate pH 7.5, 37 °C, 20 min): 5.4 mM
Compound: CC(=O)n1ccnc1 [N-acetyl-imidazole]

IC50 ([1]; covalent, tryptophanyl modifier, 1 h in 150 mM phosphate pH 7.5, then dialysed before assay): 5 mM
Compound: O=C1CCC(=O)N1Br [N-bromosuccinimide]

IC50 ([1]; covalent, sulfhydryl modifier, pre-incubated 1 h at 25 °C, 100 mM Tris-HCl pH 5.0, 1 mM EDTA): 4.95 mM
Compound: CCN1C(=O)C=CC1=O [N-ethylmaleimide]

IC50 ([1]; covalent, arginyl modifier, 50 mM sodium borate pH 7.0, room temperature): 4.66 mM
Compound: CC(=O)C(C)=O [butanedione]

IC50 ([1]; covalent, lysyl modifier, 100 mM Tris-HCl pH 7.0, 4 °C, 1 h): 6.48 mM
Compound: CN(C)c1cccc2c(S(=O)(=O)Cl)cccc12 [dansyl chloride]

IC50 ([1]; covalent, histidyl modifier, assay buffer, 25 °C, 5 min): 6.44 mM
Compound: CCOC(=O)OC(=O)OCC [diethylpyrocarbonate]
